Assay results reported in patent EP2439197A1, “Substituted benzimidazole derivatives as melanocortin 4 receptor antagonists” (Santhera Pharmaceuticals (Schweiz) AG, priority 2010, dated 2012).
pEC50, pIC50: −log10 of the molar value. Read-outs that look alike come from different tables or passages of the source.

What was measured:
[1] = molecular target: T1, hMC-4R (Homo sapiens, UniProt P32245); test: membrane binding assay, competition with fluorescence labeled NDP-alpha-MSH (fluorescence polarization); details: for IC50: HEK293 cell membrane preparations expressing human melanocortin receptors, read-out: hMC-4R binding assay IC50/µM
T1 construct: expressed in transfected cells; host or cells: HEK293 cells (membrane preparations)
T1 sequence (P32245 whole entry): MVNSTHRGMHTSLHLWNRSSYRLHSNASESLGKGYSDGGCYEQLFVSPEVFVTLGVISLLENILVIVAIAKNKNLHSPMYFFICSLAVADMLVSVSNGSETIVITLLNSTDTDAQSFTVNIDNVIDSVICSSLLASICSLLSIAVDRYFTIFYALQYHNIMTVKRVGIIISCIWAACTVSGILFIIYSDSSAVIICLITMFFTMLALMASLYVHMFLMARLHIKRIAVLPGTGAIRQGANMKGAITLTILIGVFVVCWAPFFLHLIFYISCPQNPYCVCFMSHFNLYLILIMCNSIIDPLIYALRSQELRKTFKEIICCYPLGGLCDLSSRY
Method: A membrane binding assay is used to identify competitive inhibitors of fluorescence labeled NDP-alpha-MSH binding to HEK293 cell membrane preparations expressing human melanocortin receptors.
The test compound or unlabeled NDP-alpha-MSH is dispensed at varying concentrations to a 384 well microtiter plate. Fluorescence labeled NDP-alpha-MSH is dispensed at a single concentration, followed by addition of membrane preparations. The plate is incubated for 5 h at room temperature.
The degree of fluorescence polarization is determined with a fluorescence polarization microplate reader.

[2] = molecular target: T1, hMC-4R; test: functional assay, homogeneous membrane based cAMP fluorescence polarization assay; format: biochemical; details: for Emax: read-out: % activation functional assay

Row | SMILES | pIC50 [1] | Emax [2] [%] | IC50 [1] [µM] | EC50 ([2]; membrane preparations from HEK293 cells, cAMP production, read-out: hMC-4R functional assay EC50/µM) [µM] | pEC50 [2]
1 | CC(C)CCN(CCC(C)C)C(=O)c1ccc2nc(-c3ccc(=O)[nH]c3)n(CC(O)CN3CCCC3)c2c1 (stereo not shown) [Example 1] | > 6.00 | -15 |  |  | 
2 | CC(C)CCN(CCC(C)C)C(=O)c1ccc2nc(-c3ccc(=O)[nH]c3)n(CC(F)CN3CCCC3)c2c1 (stereo not shown) [Example 2] | > 7.00 | -11 |  |  | 
3 | COc1ccc(-c2nc3ccc(C(=O)N(CCC(C)C)CCC(C)C)cc3n2CC(O)CN2CCCC2)cn1 (stereo not shown) [Example 3] |  | -25 | < 0.1 | 0.1 to 1 | 
4 | CC(C)CCN(CCC(C)C)C(=O)c1ccc2nc(-c3ncco3)n(CC(O)CN3CCCC3)c2c1 (stereo not shown) [Example 4] | > 7.00 | -28 |  |  | > 7.00
5 | COc1cc(C2(c3nc4ccc(C(=O)N(CCC(C)C)CCC(C)C)cc4n3CCCN3CCCC3)CC2)ccn1 [Example 5] | > 6.00 | -6 |  |  | 
6 | COc1ccc(C2(c3nc4ccc(C(=O)N(CCC(C)C)CCC(C)C)cc4n3CCCN3CCCC3)CC2)cn1 [Example 6] | > 6.00 | -11 |  |  | 
7 | CC(C)CCN(CCC(C)C)C(=O)c1ccc2nc(N3CCN(C)CC3)n(CCCN3CCCC3)c2c1 [Example 7] | 5.00 to 6.00 | -4 |  |  | 
8 | CC(C)CCN(CCC(C)C)C(=O)c1ccc2nc(CN3CCN(C)CC3)n(CCCN3CCCC3)c2c1 [Example 8] |  | -6 | < 0.1 |  | 
9 | CC(C)CCN(CCC(C)C)C(=O)c1ccc2nc(CN3CCN(CCO)CC3)n(CCCN3CCCC3)c2c1 [Example 9] | > 7.00 | -9 |  |  | 
10 | CC(C)CCN(CCC(C)C)C(=O)c1ccc2nc(CN3CCN(C(C)C)CC3)n(CCCN3CCCC3)c2c1 [Example 10] | > 6.00 | 0 |  |  | 
11 | CC(C)CCN(CCC(C)C)C(=O)c1ccc2nc(C3CCN(C(=O)OC(C)(C)C)CC3)n(CCCN3CCCC3)c2c1 [Example 11] | > 7.00 | -33 |  |  | > 7.00
12 | CC(C)CCN(CCC(C)C)C(=O)c1ccc2nc(C3CCN(C(=O)OC(C)(C)C)CC3)n(CCCN3CCCC3C)c2c1 (stereo not shown) [Example 12] | > 7.00 | -40 |  |  | > 7.00
13 | CC(C)CCN(CCC(C)C)C(=O)c1ccc2nc(CC3CCN(C(=O)OC(C)(C)C)CC3)n(CCCN3CCCC3)c2c1 [Example 13] | > 7.00 | -7 |  |  | 
14 | CC(C)CCN(CCC(C)C)C(=O)c1ccc2nc(CC3CCN(CCO)CC3)n(CCCN3CCCC3)c2c1 [Example 14] | > 7.00 | -18 |  |  | 
15 | CC(C)CCN(CCC(C)C)C(=O)c1ccc2nc(CC3CCN(C4COC4)CC3)n(CCCN3CCCC3)c2c1 [Example 15] | > 7.00 | -11 |  |  | 
16 | CC(C)CCN(CCC(C)C)C(=O)c1ccc2nc(C3CN(C(=O)OC(C)(C)C)C3)n(CCCN3CCCC3)c2c1 [Example 16] |  | -9 | < 0.1 |  | 
17 | CC(C)CCN(CCC(C)C)C(=O)c1ccc2nc([C@H]3CC[C@H](N(C)C)CC3)n(CCCN3CCCC3)c2c1 [Example 17] | > 7.00 | -6 |  |  | 
18 | CC(C)CCN(CCC(C)C)C(=O)c1ccc2nc([C@H]3CC[C@@H](N(C)C)CC3)n(CCCN3CCCC3)c2c1 [Example 18] | > 7.00 | -19 |  |  | 
19 | CCCCN(CCCC)C(=O)c1ccc2nc(CC3CCN(C(=O)OC(C)(C)C)CC3)n(CCCN3CCCC3)c2c1 [Example 19] | > 7.00 | -33 |  |  | > 7.00
20 | CCCCN(CCCC)C(=O)c1ccc2nc(CC3CCN(C4COC4)CC3)n(CCCN3CCCC3)c2c1 [Example 20] | > 6.00 | 0 |  |  | 

Row | SMILES | pIC50 [1] | Emax [2] [%] | IC50 [1] [µM] | EC50 ([2]; membrane preparations from HEK293 cells, cAMP production, read-out: hMC-4R functional assay EC50/µM) [µM] | pEC50 [2]
21 | CC(C)CCN(CCC(C)C)C(=O)c1ccc2nc(-c3ccc(=O)[nH]c3)n(CCCN3CCCC3)c2c1 [Example 21] | > 7.00 | -14 |  |  | 
22 | CC(C)CCN(CCC(C)C)C(=O)c1ccc2nc(-c3ccc(=O)[nH]c3)n(CCCN3CCCCC3)c2c1 [Example 22] |  | -12 | < 0.1 |  | 
23 | CC(C)CCN(CCC(C)C)C(=O)c1ccc2nc(C3CCNCC3)n(CCCN3CCCC3)c2c1 [Example 23] | > 7.00 | -39 |  |  | > 7.00
24 | CC(C)CCN(CCC(C)C)C(=O)c1ccc2nc(C3CCN(C)CC3)n(CCCN3CCCC3)c2c1 [Example 24] | > 7.00 | -44 |  |  | > 7.00
25 | CC(C)CCN(CCC(C)C)C(=O)c1ccc2nc(-c3ccc(=O)[nH]c3)n(CCCN3CCCC3C)c2c1 (stereo not shown) [Example 25] | > 7.00 | -37 |  |  | > 7.00
26 | CC(C)CCN(CCC(C)C)C(=O)c1ccc2nc(C3CCNCC3)n(CCCN3CCCC3C)c2c1 (stereo not shown) [Example 26] | > 7.00 | -12 |  |  | 
27 | CC(C)CCN(CCC(C)C)C(=O)c1ccc2nc(C3CCN(C)CC3)n(CCCN3CCCC3C)c2c1 (stereo not shown) [Example 27] |  | -2 | < 0.1 |  | 
28 | CC(C)CCN(CCC(C)C)C(=O)c1ccc2nc(CC3CCNCC3)n(CCCN3CCCC3)c2c1 [Example 28] |  | -6 | < 0.1 |  | 
29 | CC(C)CCN(CCC(C)C)C(=O)c1ccc2nc(CC3CCN(C)CC3)n(CCCN3CCCC3)c2c1 [Example 29] | > 7.00 | -10 |  |  | 
30 | CC(C)CCN(CCC(C)C)C(=O)c1ccc2nc(-c3cnc(O)nc3)n(CCCN3CCCC3)c2c1 [Example 30] | > 6.00 | -12 |  |  | 
31 | CC(C)CCN(CCC(C)C)C(=O)c1ccc2nc(C3CNC3)n(CCCN3CCCC3)c2c1 [Example 31] | > 7.00 | -32 |  |  | 6.00 to 7.00
32 | CC(C)CCN(CCC(C)C)C(=O)c1ccc2nc(C3CN(C)C3)n(CCCN3CCCC3)c2c1 [Example 32] | > 7.00 | -18 |  |  | > 7.00
33 | COc1cc(Cc2nc3ccc(C(=O)N(CCC(C)C)CCC(C)C)cc3n2CCCN2CCCC2)ccn1 [Example 33] | > 7.00 | 0 |  |  | 
34 | CC(C)CCN(CCC(C)C)C(=O)c1ccc2nc(C3CNC(=O)C3)n(CCCN3CCCC3)c2c1 (stereo not shown) [Example 34] | > 7.00 | -10 |  |  | 
35 | CC(C)CCN(CCC(C)C)C(=O)c1ccc2nc(C3CCC(=O)NC3)n(CCCN3CCCC3)c2c1 (stereo not shown) [Example 35] | > 6.00 | -11 |  |  | 
36 | CC(C)CCN(CCC(C)C)C(=O)c1ccc2nc(C3CCN(C)C(=O)C3)n(CCCN3CCCC3)c2c1 (stereo not shown) [Example 36] | > 6.00 | -5 |  |  | 
37 | CC(C)CCN(CCC(C)C)C(=O)c1ccc2nc(C3CCC(=O)N(C)C3)n(CCCN3CCCC3)c2c1 (stereo not shown) [Example 37] | > 6.00 | -2 |  |  | 
38 | CCCCN(CCCC)C(=O)c1ccc2nc(CC3CCNCC3)n(CCCN3CCCC3)c2c1 [Example 38] | > 7.00 | -5 |  |  | 
39 | CCCCN(CCCC)C(=O)c1ccc2nc(CC3CCN(C)CC3)n(CCCN3CCCC3)c2c1 [Example 39] | > 7.00 | -8 |  |  | 
